Question: With O=C(CCc1nnc(Nc2ccccc2Cl)o1)NC1CCN(Cc2ccc(Cl)c(Cl)c2)CC1 [Compound No. 6 of Table I, 3-[5-(2-chloro-phenylamino)-[1,3,4]oxadiazol-2-yl]-N-[1-(3,4-dichloro-benzyl)-piperidin-4-yl]-propionamide] as the compound, how does the melting point read?
Answer: 154 to 156 °C

Question: With O=C(Cc1csc(Nc2ccccc2)n1)NC1CCN(Cc2ccc(Cl)c(Cl)c2)CC1 [Compound No. 1 of Table V, 2-(2-Anilino-1,3-thiazol-4-yl)-N-[1-(3,4-dichlorobenzyl)piperidin-4-yl]acetamide] as the compound, how does the melting point read?
Answer: 191 to 192 °C

Question: For O=C(CCc1nnc(Nc2ccccc2Cl)o1)NC1CCN(Cc2ccc(F)c(F)c2)CC1 [Compound No. 22 of Table I, 3-[5-(2-chloro-phenylamino)-[1,3,4]oxadiazol-2-yl]-N-[1-(3,4-difluorobenzyl)-piperidin-4-yl]-propionamide], which melting point is on record?
Answer: 162 to 163 °C

Question: With O=C(Cc1nnc(Nc2ccccc2)o1)NC1CCN(Cc2ccc(Cl)c(Cl)c2)CC1 [Compound No. 1 of Table I, N-[1-(3,4-Dichlorobenzyl)-piperidin-4-yl]-2-(5-phenylamino-[1,3,4]oxadiazol-2-yl)-acetamide] as the compound, how does the melting point read?
Answer: 191 to 217 °C
